According to patent US20110269778A1, “NOVEL DIPHENYL PURINE DERIVATIVES USEFUL AS MODULATORS OF NICOTINIC ACETYLCHOLINE RECEPTORS” (NEUROSEARCH A/S, priority 2008, published 2011):

Columns and labels:
[1] = biological target: T1, wild-type nAChR α7 receptors (Homo sapiens, UniProt P36544); test: Positive modulation of wild-type nAChR α7 receptors expressed in Xenopus laevis oocytes, two-electrode voltage clamp; format: cell-based; conditions: for Emax: maximal modulation of the control response to 100 μM acetylcholine, (test-control)/control×100%, from fitted concentration response curve, read-out: EC50 Imax; for EC50: positive modulation of current induced by 100 μM acetylcholine, oocytes clamped at −60 mV, test compound 0.01-31.6 μM applied 30 s before and during acetylcholine
T1 construct: expressed in transfected cells; host or cells: Xenopus laevis oocytes
Experimental: In this example the positive modulation of wild-type nAChR α7 receptors by the compounds of the invention was determined using nAChR α7 receptors heterologously expressed in Xenopus laevis oocytes.
The electrical current through the nAChR α7 channel was measured using conventional two-electrode voltage clamp and nAChR α7 currents were activated by applying pulses of agonist-containing solution onto the nAChR α7 expressing oocyte.
In brief, the oocytes were placed in a recording chambers and continuously super-fused with an Oocyte Ringer (OR) solution containing 90 mM NaCl, 2.5 mM KCl, 2.5 mM CaCl2, 1 mM MgCl2 and 5 mM HEPES (pH adjusted to 7.4). The oocytes were clamped at −60 mV and currents were induced by applying 20 s pulses of 100 μM acetylcholine dissolved in OR. The intervals between the acetylcholine applications were 5 minutes, during which the oocytes were washed with OR. The first three applications were control applications to insure a constant response level of 100 μM acetylcholine. For the subsequent test applications, increasing concentrations (0.01-31.6 μM) of the test compound were applied 30 s before and during the acetylcholine (100 μM) application, which caused a robust increase in the acetylcholine-induced current amplitude.
The positive modulation in the presence of Compound 4 was calculated as (test-control)/control×100% and the concentration response curve for this positive modulation was fitted to the sigmoidal logistic equation: I=Imax/(1+(EC50/[compound])^n), where Imax represents the maximal modulation of the control response, EC50 is the concentration causing a half maximal response, and n is the slope coefficient.

T1 sequence (P36544 23-502): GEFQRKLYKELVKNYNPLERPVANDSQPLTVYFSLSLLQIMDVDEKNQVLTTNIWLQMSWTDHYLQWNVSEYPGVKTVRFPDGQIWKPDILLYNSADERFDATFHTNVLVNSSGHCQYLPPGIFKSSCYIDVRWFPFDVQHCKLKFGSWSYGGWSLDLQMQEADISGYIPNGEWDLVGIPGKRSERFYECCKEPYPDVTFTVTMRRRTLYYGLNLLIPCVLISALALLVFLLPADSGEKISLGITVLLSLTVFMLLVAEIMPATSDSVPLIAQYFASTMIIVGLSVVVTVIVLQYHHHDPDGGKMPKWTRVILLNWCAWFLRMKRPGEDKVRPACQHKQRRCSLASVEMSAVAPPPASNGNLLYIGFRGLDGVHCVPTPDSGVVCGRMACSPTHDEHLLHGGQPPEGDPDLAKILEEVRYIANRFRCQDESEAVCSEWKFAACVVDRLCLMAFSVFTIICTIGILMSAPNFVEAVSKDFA

| Structure (SMILES) | Emax [1] | EC50 [1] | melting point |
| --- | --- | --- | --- |
| COc1ccc(-n2cnc3c(-c4ccc(C(F)(F)F)cc4F)ncnc32)cc1 [Compound 1, 6-(2-Fluoro-4-trifluoromethyl-phenyl)-9-(4-methoxy-phenyl)-9H-purine] | 45% | 1.2 µM | 181.4 to 182.8 °C |
| Oc1ccc(-n2cnc3c(-c4ccc(C(F)(F)F)cc4F)ncnc32)cc1 [Compound 2, 4-[6-(2-Fluoro-4-trifluoromethyl-phenyl)-purin-9-yl]-phenol] | 120% | 5.8 µM | 205.2 to 206.4 °C |
| NS(=O)(=O)c1ccc(-n2cnc3c(-c4ccc(C(F)(F)F)cc4F)ncnc32)cc1 [Compound 3, 4-[6-(2-Fluoro-4-trifluoromethyl-phenyl)-purin-9-yl]-benzenesulfonamide] | 44% | 9.5 µM | 243.8 to 245 °C |
| COc1ccc(-n2c(=O)[nH]c3c(-c4ccc(C(F)(F)F)cc4F)ncnc32)cc1 [Compound 4, 6-(2-Fluoro-4-trifluoromethyl-phenyl)-9-(4-methoxy-phenyl)-7,9-dihydro-purin-8-one] | 1.6% | 3.2 µM | 295.9 to 297.2 °C |
| O=c1[nH]c2c(-c3ccc(C(F)(F)F)cc3F)ncnc2n1-c1ccc(O)cc1 [Compound 5, 6-(2-Fluoro-4-trifluoromethyl-phenyl)-9-(4-hydroxy-phenyl)-7,9-dihydro-purin-8-one] | 82% | 33 µM | 276.4 to 277.9 °C |
| COc1ccc(-n2nnc3c(-c4ccc(C(F)(F)F)cc4F)ncnc32)cc1 [Compound 6, 7-(2-Fluoro-4-trifluoromethyl-phenyl)-3-(4-methoxy-phenyl)-3H-[1,2,3]-triazolo[4,5-d]pyrimidine] | 7.3% |  | 175.4 to 176.8 °C |
| Oc1ccc(-n2nnc3c(-c4ccc(C(F)(F)F)cc4F)ncnc32)cc1 [Compound 7, 4-[7-(2-Fluoro-4-trifluoromethyl-phenyl)-[1,2,3]triazolo[4,5-d]pyrimidin-3-yl]-phenol] | 28% | 5.9 µM | 210.2 to 211.8 °C |
